Measured values: PMC8202330, “Phosphorylation of the LIR Domain of SCOC Modulates ATG8 Binding Affinity and Specificity” (Journal of Molecular Biology, 2021)
Residues, ends and D or L forms follow the SMILES beside them. *: point of attachment. Cbz = O=C(OCc1ccccc1)*

Test system: EGFP-SCOC (isoform 1 and 3) in HeLa Flp-In T-Rex cells
Test: Western blot of EGFP-SCOC protein levels with lysosomal or proteasomal inhibitors
Assay type: cell-based
Settings: 7 h in full medium or EBSS, 10 µM MG132, 1 µM epoxymycin, 100 nM Bafilomycin A1
Experimental: To determine whether SCOC is functioning as an autophagy receptor and degraded by autophagy, we induced expression of EGFP-SCOC (isoform 1 and 3) in HeLa cells followed by 7 h EBSS starvation in the presence and absence of lysosomal or proteasomal inhibitors. […] Thus, both SCOC isoform1 and 3 are not turned over by autophagy, but by the proteasome.
HeLa Flp-In T-Rex cell lines expressing GFP-SCOC (isoform 1), GFP-SCOC (isoform 3), GFP-SCOC F14A/I17A (isoform 3) from a tetracycline inducible CMV promoter were made using the FlpIn T-Rex system (Thermofisher, R71407). pDest-EGFP-Flp-In SCOC iso1, pDest-EGFP-Flp-In SCOC iso3 and pDest-EGFP-Flp-In SCOC iso3 LIRm constructs were established by GATEWAY cloning into the pDEST-EGFP-FlpIn vector.[18] The HeLa-based Flp-In T-Rex host cell line (Invitrogen) contains a single integrated FRT site for insertion of selected constructs. To generate stable cell lines, Flp-In plasmids carrying the selected GFP-tagged constructs were co-transfected with pOG44 encoding the Flp-In recombinase in the ratio of 1:3. Cells were selected by treatment with 200 µg/ml Hygromycin B (Invitrogen, #10687010) and 7,5 µg/ml Blasticidine (Gibco, A1113903). Expression from the CMV-TetO2 promoter was induced by adding 0.5 μg/ml of tetracycline (Sigma, T7660) for 16 to 24 hours. HeLa Flp-In T-Rex cell lines were maintained in Dulbecco’s modified Eagle’s medium supplemented with 10% fetal calf serum, 4 mM l-glutamine, 1% streptomycin-penicillin, 100 µg/ml Hygromycin B, and 3.5 µg/ml Blasticitidine. Cells were treated as indicated with 100 nM Bafilomycin A1, 10 µM MG132, or 1 µM epoxomicin in full medium or Earle’s balanced salt solution (EBSS).
Cells were lysed in ice-cold TNTE buffer (20 mM Tris-HCl, pH 7.4, 150 mM NaCl, 0.5% w/v Triton X-100, 10% v/v glycerol, 5 mM EDTA) containing EDTA-free Complete Protease Inhibitor cocktail (Roche) and PhosSTOP (Roche). Lysates were cleared by centrifugation and resolved on NuPAGE Bis-Tris 4–12% gels (Life Technologies) followed by transfer onto a PVDF membrane (Millipore). […]

Question: CC(C)C[C@@H](C=O)NC(=O)[C@H](CC(C)C)NC(=O)[C@H](CC(C)C)NC(=O)OCc1ccccc1 [MG132] (Cbz-Leu-Leu-Leu-aldehyde) was tested. Which “SCOC isoform 1 and 3 protein levels” value did it give?
Answer: Its value is “increased”.

Question: How did the “SCOC isoform 1 and 3 protein levels” value turn out when CO/C1=C\C(C)=C\[C@@H](C)[C@@H](O)[C@@H](C)C/C(C)=C/C=C/[C@H](OC)[C@@H]([C@@H](C)[C@@H](O)[C@H](C)[C@@]2(O)C[C@@H](O)[C@H](C)[C@@H](C(C)C)O2)OC1=O [BafilomycinA1] was run?
Answer: The value was “did not have any effect”.

Question: With CC[C@H](C)[C@H](NC(=O)[C@H]([C@@H](C)CC)N(C)C(C)=O)C(=O)N[C@H](C(=O)N[C@@H](CC(C)C)C(=O)[C@@]1(C)CO1)[C@@H](C)O [epoxymycin] as the molecule, how does the “SCOC isoform 1 and 3 protein levels” value read?
Answer: The value was “increased”.
